Reference: ChEMBL document CHEMBL1833794, “Synthesis and biological evaluation of 1-substituted-3-(6-methylpyridin-2-yl)-4-([1,2,4]triazolo[1,5-a]pyridin-6-yl)pyrazoles as transforming growth factor-β type 1 receptor kinase inhibitors” (Bioorg Med Chem Lett, 2011)

What was measured:
Settings in all cases: in vivo
[1] = Oral bioavailability in rat at 50.3 mg/kg; format: ADME, organism-based
[2] = Oral bioavailability in rhesus monkey at 5.5 mg/kg; format: ADME, organism-based, Macaca mulatta
[3] = Oral bioavailability in mouse at 50.3 mg/kg; format: ADME, organism-based
[4] = Oral bioavailability in dog at 5.5 mg/kg; format: ADME, organism-based, Canis lupus familiaris

Q: For `Cc1cccc(-c2[nH]c(Cc3cccc(C(N)=O)c3)nc2-c2ccc3nccnc3c2)n1`, which bioavailability [1] is on record?
A: Its bioavailability is 11.4%.

Q: And the bioavailability [2]?
A: Its bioavailability is 34.4%.

Q: And the bioavailability [3]?
A: The bioavailability was 8.95%.

Q: What about the bioavailability [4] of the same compound?
A: Its bioavailability is 84.9%.
